Measurements from patent US11555072B2, “A33 antibody compositions and methods of using the same in radioimmunotherapy” (MEMORIAL SLOAN KETTERING CANCER CENTER, priority 2017, dated 2023).

Test system: GPA33-expressing cancer cells
Assay: T-cell dependent cytotoxicity (TDCC) assay with activated T cells
Format: cell-based, human
Experimental: T-cell dependent cytotoxicity (TDCC) assays. Cytotoxicity assays were performed using both ^51Cr-release assay and Pierce LDH-release assay (Thermo Fisher Scientific, Cambridge, Mass.). For both assays, T cells activated by exposure to anti-CD3/anti-CD28 Dynabeads for 14 days were subsequently used as effector cells, excepted for sorted cells from PBMCs, which were used for TDCC assay without prior stimulation. ^51Cr assay was performed as previously described in Cheng M et al., International Journal of Cancer 136:476-486 (2015). LDH assay was conducted according to the manufacturer's instructions with the following modifications. Briefly, for each assay well of a 96-well round-bottom plate, 1.5×10^4 target cells were incubated with variable number of effector cells, depending on the intended E:T ratios. Antibodies were then added at different dilutions and the plates were incubated at 37° C. for 16 hours. Each condition was done in triplicates. Supernatant was then transferred to a flat bottom plate with reaction substrate and incubated for 30 min before reading at 490 nm, with 680 nm as a reference wavelength. EC50 values were calculated by fitting the curves to a 4-parameter nonlinear regression model using GraphPad Prism.
Cancer cells were incubated with activated T cells at an effector to target ratio of 10:1 in the presence of 10-fold serial dilutions of huA33-BsAb. GPA33(−) melanoma cell line SKMEL5 and […] cell line TC32 were used as negative controls. […] Maximal level of cytotoxicity seemed to correlate with the level of FACS staining (FIG. 1(D) and FIG. 4(A)). Moreover, TDCC induced by huA33-BsAb was potent, with EC50 values in the pM range.

## huA33-BsAb: huA33 IgG with humanized OKT3 scFv fused to light chain C-terminus, N297A and K322A; SEQ ID NO: 19 and 21
LS174T, SW1222, Colo205, SNU16, activated T cells, E:T 10:1, 16 hours
  redirected T cell killing of GPA33-expressing cancer cells: specifically kill all GPA33-expressing cancer cells
SKMEL5 and TC32, E:T 10:1
  redirected T cell killing of GPA33(−) control cells: sparing SKMEL5 and TC32
Activated T cells, E:T 10:1
  TDCC EC50 values: pM range
